Our source for the solubility values is the OPERA property sets (Mansouri et al. 2018).

As a reminder, the solubility is how much of the substance goes into solution per volume. A low value points to a poorly soluble substance.

The structures appear in SMILES notation. Values after ≈ are worked out from the molar mass of the structure shown.

For one data set the following is noted: 20 °C.
In turn, `CC#Cc1cc(C)nc(Nc2ccccc2)n1` displayed a solubility of 13.9 µM (≈ 3.1 µg/mL).

The compound `COc1cccc(N(C)C(=S)Oc2cccc(C(C)(C)C)c2)n1` registered a solubility of 0.968 µM (≈ 0.32 µg/mL).

For the compound `COC(=O)/C(C)=C/OP(=S)(OC)OC`, the solubility was 1670 µM (≈ 400 µg/mL). Against the preceding compound, the solubility is about 1700-fold higher.

Regarding `CC(Oc1ccc(Oc2cnc3cc(Cl)ccc3n2)cc1)C(=O)O` (stereo not given), the solubility came out at 0.87 µM (≈ 0.3 µg/mL). This solubility lies about 1900-fold lower than the previous one.

`CCN(C(=O)SCc1ccccc1)C(C)C(C)C` (stereo not given): the solubility came to 18.5 µM (≈ 4.9 µg/mL).

For the compound `NCCO.O=C(Nc1ccc([N+](=O)[O-])cc1Cl)c1cc(Cl)ccc1O`, the solubility worked out at 258 µM.

Take `CCc1cccc(C)c1N(COC(C)C)C(=O)CCl`: the solubility was 648 µM (≈ 184 µg/mL).

Compound `CCOP(=O)(Oc1ccc(Cl)cc1Cl)Oc1ccc(Cl)cc1Cl` registered a solubility of 1.68 µM (≈ 0.7 µg/mL).

On to `ClC1=C(Cl)C(Cl)(C2(Cl)C(Cl)=C(Cl)C(Cl)=C2Cl)C(Cl)=C1Cl`, for which the solubility was found to be 0.0527 µM (≈ 0.025 µg/mL).

In the case of `COP(=O)(OC)O/C(=C\Cl)c1ccc(Cl)cc1Cl`, the solubility stood at 392 µM (≈ 130 µg/mL).

`CC1COc2ccccc2N1C(=O)C(Cl)Cl` (stereo not given) came in with a solubility of 76.9 µM (≈ 20 µg/mL).

Compound `CSc1nnc(C(C)(C)C)c(=O)n1N` registered a solubility of 5280 µM (≈ 1130 µg/mL).

`CNC(=O)Oc1cc(C)c(SC)c(C)c1`: the solubility turned out to be 72.9 µM (≈ 16.4 µg/mL).

`CCCSP(=O)(OCC)Oc1cnn(-c2ccc(Cl)cc2)c1` (stereo not given) came in with a solubility of 91.5 µM (≈ 33 µg/mL).

On to `C=CCNC(=O)CN(CC=C)C(=O)C(Cl)Cl`, for which the solubility was 91300 µM (≈ 24200 µg/mL).

The compound `CCCCOC(=O)C1(O)c2ccccc2-c2ccccc21` returned a solubility of 129 µM (≈ 36.5 µg/mL).

In the case of `CCNC(=O)C(C)OC(=O)Nc1ccccc1` (stereo not given), the solubility was determined as 14800 µM (≈ 3500 µg/mL).

`CNC(=O)Oc1ccc(C)c(C)c1` gave a solubility of 7250 µM (≈ 1300 µg/mL). Compared with the last compound, the solubility is about 2-fold lower.

As for `CCOC(=O)c1cnn(C)c1S(=O)(=O)NC(=O)Nc1nc(OC)cc(OC)n1`, the solubility is 35 µM (≈ 14.5 µg/mL).

In the case of `Cc1nn(C)c(OCC(=O)c2ccccc2)c1C(=O)c1ccc(Cl)cc1Cl`, the solubility was 2230 µM (≈ 900 µg/mL).

Still in this data set, the particulars now being: 22 °C.
On to `CC(C)c1ccc(NC(=O)N(C)C)cc1`, for which the solubility was 291 µM (≈ 60 µg/mL).

The same data set, now with this note: 23 °C.
For `CCN(CC)C(=O)SCc1ccccc1Cl`, the solubility is 93.1 µM (≈ 24 µg/mL).

The data set is the same for the next values; noted with them: 24 °C.
With `CCOC(=O)Cc1[nH]nc2ccc(Cl)cc12`, the solubility stood at 943 µM (≈ 225 µg/mL).

The data set is the same for the next values; noted with them: 25 °C.
`CCCCCOC(=O)COc1cc(N2C(=O)C3=C(CCCC3)C2=O)c(F)cc1Cl` yielded a solubility of 0.446 µM (≈ 0.189 µg/mL).

For the compound `CCOP(=S)(NC(C)CC)Oc1cc(C)ccc1[N+](=O)[O-]` (stereo not given), the solubility was 16.9 µM (≈ 5.62 µg/mL).

For `Oc1ccccc1-c1ccccc1`, the solubility was found to be 4110 µM (≈ 700 µg/mL).

`COc1ccc(NC(=O)N(C)C)cc1Cl` came in with a solubility of 2620 µM (≈ 600 µg/mL).

Regarding `COc1nc(NC(C)C)nc(NC(C)C)n1`, the solubility came out at 3330 µM (≈ 750 µg/mL). This solubility and that of the compound before are within 1.5-fold of each other.

Regarding `CCCN(CCC)c1c([N+](=O)[O-])cc(C(F)(F)F)c(N)c1[N+](=O)[O-]`, the solubility stood at 0.0371 µM (≈ 0.013 µg/mL).

`CC1(C)CNC(=NN=C(/C=C/c2ccc(C(F)(F)F)cc2)/C=C/c2ccc(C(F)(F)F)cc2)NC1` showed a solubility of 0.0121 µM (≈ 0.006 µg/mL).

`CCOC(=O)C1(C)OC(=O)N(c2cc(Cl)cc(Cl)c2)C1=O` (stereo not given) had a solubility of 24.1 µM (≈ 8 µg/mL). This solubility lies about 2000-fold higher than the previous one.

`O=C(OCc1ccccc1)c1sc(Cl)nc1C(F)(F)F` showed a solubility of 1.55 µM (≈ 0.5 µg/mL).

Take `C#CCC1=C(C)C(OC(=O)C2C(C=C(C)C)C2(C)C)CC1=O` (stereo not given): the solubility amounted to 26.6 µM (≈ 8 µg/mL).

In turn, `N#Cc1c[nH]cc1-c1cccc(Cl)c1Cl` gave a solubility of 20.2 µM (≈ 4.8 µg/mL).

For `CC(C)C1(C)N=C(c2ncccc2C(=O)O)NC1=O` (stereo not given), the solubility stood at 43300 µM (≈ 11300 µg/mL).

In turn, `O=c1ccc(=O)[nH][nH]1` had a solubility of 53500 µM (≈ 6000 µg/mL).

In turn, `CC(Oc1ccc(Oc2cnc3cc(Cl)ccc3n2)cc1)C(=O)OCC1CCCO1` (stereo not given) showed a solubility of 9.33 µM (≈ 4 µg/mL).

On to `CCOc1cc(Oc2ccc(C(F)(F)F)cc2Cl)ccc1[N+](=O)[O-]`, for which the solubility worked out at 0.298 µM (≈ 0.108 µg/mL).

Consider `CON(C)C(=O)Nc1ccc(Oc2ccc3c(c2)OC(C)(OC)CC3(C)C)cc1` (stereo not given), for which the solubility was determined as 0.999 µM (≈ 0.4 µg/mL).

As for `Nc1c(Cl)c(Cl)nc(C(=O)O)c1Cl`, the solubility worked out at 1780 µM (≈ 430 µg/mL). Compared with the last compound, the solubility is about 1800-fold higher.

On to `CC(C)(C)C(O)/C(=C\c1ccc(Cl)cc1Cl)n1cncn1` (stereo not given), for which the solubility came to 12.3 µM (≈ 4 µg/mL).

In the case of `CC1=C(C)S(=O)(=O)CCS1(=O)=O`, the solubility amounted to 21900 µM (≈ 4600 µg/mL).

The compound `Cc1c(Cl)ccc(OC(C)C(O)=Nc2ccccc2)c1Cl` (stereo not given) gave a solubility of 0.0987 µM (≈ 0.032 µg/mL). This counts as double-digit nanomolar.

Regarding `COCC(C)N(C(=O)CCl)c1c(C)csc1C` (stereo not given), the solubility is 4350 µM (≈ 1200 µg/mL).

In the case of `CCCCN(CCCC)SN(C)C(=O)Oc1cccc2c1OC(C)(C)C2`, the solubility was 0.788 µM (≈ 0.3 µg/mL).

In turn, `CCOP(=O)(N=C1SCC(C)S1)OCC` (stereo not given) displayed a solubility of 212 µM (≈ 57 µg/mL).

For the compound `Cc1cnc(C2=NC(=O)C(C)(C(C)C)N2)c(C(=O)O)c1` (stereo not given), the solubility was 8110 µM (≈ 2230 µg/mL).

For the compound `O=C1OCc2c(Cl)c(Cl)c(Cl)c(Cl)c21`, the solubility turned out to be 9.19 µM (≈ 2.5 µg/mL). This solubility is about 880-fold lower than that of the compound before.

In turn, `CCn1cc(C(=O)O)c(=O)c2cc3c(cc21)OCO3` gave a solubility of 12.2 µM (≈ 3.2 µg/mL).

In turn, `CN(C)NC(=O)CCC(=O)O` showed a solubility of 624000 µM (≈ 100000 µg/mL).

Compound `CCCCOC(=O)N(C)SN(C)C(=O)Oc1cccc2c1OC(C)(C)C2` registered a solubility of 27.4 µM (≈ 10.5 µg/mL).

Staying with this data set, now noted: 27 °C.
Turning to `CC(Oc1ccc2ccccc2c1)C(O)=Nc1ccccc1` (stereo not given), the solubility is 2.57 µM (≈ 0.75 µg/mL).

Turning to `C/C=C\COCN(C(=O)CCl)c1c(CC)cccc1CC`, the solubility stood at 93.6 µM (≈ 29 µg/mL).

As to `CN(C)C(=O)C(c1ccccc1)c1ccccc1`, the solubility was determined as 1090 µM (≈ 260 µg/mL).

The data set is the same for the next values; noted with them: 30 °C.
For `O=C(Nc1ccc(Cl)cc1C(O)c1ccccc1)c1ccncc1` (stereo not given), the solubility was 2.95 µM (≈ 1 µg/mL).

The same data set, now with this note: pH 5.0; 25 °C.
The compound `COc1cc(OC)nc(N=C(O)NS(=O)(=O)Nc2ccccc2C(=O)C2CC2)n1` had a solubility of 0.403 µM (≈ 0.17 µg/mL). In other words, the sub-micromolar range.

The data set is the same for the next values; noted with them: pH 6.4; 21 °C.
In the case of `O=C(Nc1ccccc1)Nc1ccnc(Cl)c1`, the solubility is 157 µM (≈ 39 µg/mL).

Still in this data set, the particulars now being: pH 6.5; 23 °C.
`CCCCOC(=O)C(C)Oc1ccc(Oc2ccc(C(F)(F)F)cn2)cc1` (stereo not given) showed a solubility of 3.1 µM (≈ 1.19 µg/mL).

The same data set, now with this note: pH 7.0; 20 °C.
`OC(Cn1cncn1)(c1ccc(F)cc1)c1ccccc1F` (stereo not given) returned a solubility of 431 µM (≈ 130 µg/mL).

The data set is the same for the next values; noted with them: pH 7.0; 25 °C.
Turning to `OC(c1ccc(F)cc1)(c1cncnc1)c1ccccc1Cl` (stereo not given), the solubility worked out at 82.6 µM (≈ 26 µg/mL).
